These results are taken from patent US12435023B2, “Crystal form of Treprostinil sodium salt and preparation method therefor” (Shanghai Forefront Pharmaceutical Co., Ltd, priority 2019, dated 2025).

The conditions of data set [1]: 60% relative humidity, according to WO2016055819; cited from earlier work.
Data set [2] is described as follows: Water solubility at 25±2° C., dissolution observed within 30 minutes. To be noted: for solubility at 30 min: 25 °C, thermodynamic from solid; for Dissolution observed in water: 25±2° C., within 30 minutes, free acid 20 mg in 200 mL, salt forms about 100 mg in 1 mL. Here is the method:
20 mg of Treprostinil free acid was weighed and added into a volumetric flask, 200 mL of water was added, and placed in a water bath pot (temperature was controlled at 25±2° C.), shook strongly for 30 seconds every 5 minutes, and the dissolution within 30 minutes was observed.

Data set [3] in a line: Accelerated stability at 40±2° C. and 75±5% relative humidity for 6 months. To be noted: 75±5% RH. How it is done:
The purity of samples after stability test was determined by HPLC, the water content of samples after stability test was determined by Karl Fischer titration, and the crystal form of samples after stability test was determined by XRPD.

Data set [4] can be described thus: Hygroscopicity on storage at 25 degrees and 80% relative humidity for 24 hours. The data set is classed as physicochemical. Conditions: 25 degrees.
Data set [5] is described as follows: Hygroscopicity by dynamic vapor sorption (DVS). It counts as physicochemical. To be noted: for Water content: DVS. From the text:
Hygroscopicity is one of the key physicochemical properties of drugs and has a significant impact on drug stability, powderological properties and subsequent processing procedure.

Molecules are shown by their SMILES. Counter-ions that a name gives are not always drawn.

In the case of `CCCCC[C@H](O)CC[C@@H]1[C@H]2Cc3cccc(OCC(=O)O)c3C[C@H]2C[C@H]1O` [Form A, Treprostinil sodium salt], the Crystal form conversion result in data set [1] is reported as “converted into Form C”.

Turning to `CCCCC[C@H](O)CC[C@@H]1[C@H]2Cc3cccc(OCC(=O)O)c3C[C@H]2C[C@H]1O` [Treprostinil free acid, Treprostinil], in data set [2], the solubility – broadly, the concentration that dissolves in the medium under given conditions – at 30 min is less than 0.1 mg/mL and the “Dissolution observed in water” value was “insoluble”.

Turning to `CCCCC[C@H](O)CC[C@@H]1[C@H]2Cc3cccc(OCC(=O)[O-])c3C[C@H]2C[C@H]1O.[Na+]` [Treprostinil sodium salt], the Appearance entry in data set [3] (0 day) is “Off-white”; in data set [3] (1 month), “Off-White”; in data set [3] (3 months) it was “Off-white”; in data set [3] (6 months), “Off-white”. Besides, the “Purity (HPLC) after stability test” value in data set [3] (0 day) stood at 99.97%; in data set [3] (1 month), 99.97%; in data set [3] (3 months) it was 99.96%; in data set [3] (6 months), 99.98%. In addition, the “Water (Karl Fischer) after stability test” value is listed as 20.1% in data set [3] (0 day), 20.4% in data set [3] (1 month), 20.0% in data set [3] (3 months) and 20.2% in data set [3] (6 months). Further, the “Chemical stability and solid-state stability” value in data set [3] (6 months) is “excellent chemical stability and solid-state stability”. Besides, the “Behaviour of the solid on humid storage” value in data set [4] was “deliquesced into a viscous solution”. Besides, the Hygroscopicity entry in data set [4] is “extremely hygroscopic”. Moreover, the Water content in data set [5] (40.0 RH % / 25° C.) is 18.6 wt %; in data set [5] (45.0 RH % / 25° C.), 18.7 wt %; in data set [5] (50.0 RH % / 25° C.), 18.7 wt %; in data set [5] (55.0 RH % / 25° C.) it was 18.8 wt %; in data set [5] (60.0 RH % / 25° C.), 18.8 wt %; in data set [5] (65.0 RH % / 25° C.), 18.9 wt %. For the same molecule, the Water content in data set [5] (70.0 RH % / 25° C.) is 18.9 wt %; in data set [5] (75.0 RH % / 25° C.) it was 19.0 wt %; in data set [5] (80.0 RH % / 25° C.), 19.7 wt %; in data set [5] (85.0 RH % / 25° C.), 19.9 wt %; in data set [5] (90.0 RH % / 25° C.) it was 20.5 wt %; in data set [5] (95.0 RH % / 25° C.) it was 22.6 wt %. Further, the “Hygroscopicity according to the definition in European Pharmacopoeia” value in data set [5] (relative humidity 40% to 80%) is given as “slight hygroscopicity”. Moreover, in data set [5] (relative humidity increased from 40% to 80%), the “Increasing value of the water content, i.e., hygroscopicity” value is on record as 1.1 wt %. The molecule also had a solubility at 30 min in data set [2] greater than 100 mg/mL. Also, the “Dissolution observed in water” value in data set [2] is on record as “completely dissolved”.
